# Literature values, collected in patent US20230170070A1, “SYSTEM AND METHOD FOR PROVIDING FERTILITY ENHANCING DIETARY RECOMMENDATIONS IN INDIVIDUALS WITH SPERM CONDITIONS” (SOCIETE DES PRODUITS NESTLE S.A., priority 2020, published 2023).
# Like-named read-outs stand apart in the source and are kept apart here.
# Experiments:
# [1] = test system: semen quality; details: for semen quality: In RCTs
# [2] = test system: semen quality; details: from cold water fish
# [3] = for pregnancy rate in the female partner: In RCTs
# [4] = test system: oxidative stress status; details: exogenous supplementation; both in vitro and in vivo
# [5] = test system: sperm cells; details: excessive alcohol
# [6] = test system: sperm
# [7] = among men with astheno- or oligoasthenozoospermia
compound,measurement,setting,value
O=C1O[C@H]([C@@H](O)CO)C(O)=C1O [Vitamin C],progressive sperm motility,[1]; in vivo,increase in progressive
COc1cc(/C=C/C(=O)CC(=O)/C=C/c2ccc(O)c(OC)c2)ccc1O [Curcumin],semena quality parameters,[1]; among oligoasthenoteratozoospermic men,Curcumin improved
omega-3 fatty acids,influence on sperm morphology,[2],positive influence
C=C1CC[C@H](O)C/C1=C/C=C1\CCC[C@]2(C)[C@@H]([C@H](C)CCCC(C)C)CC[C@@H]12 [Vitamin D],live birth rate,"[3]; among oligozoospermic men, high-dose supplementation compared to placebo",uptake. A higher live
"O=C(O)CCCCC1CCSS1 (stereo not drawn) [Alpha-lipoic acid (ALA), Alpha-lipoic acid]",oxidative stress status,[4],improve oxidative stress
[Se] [Selenium],total sperm motility,[1]; compared with placebo,increase in total sperm
CCO [Alcohol],hormones in men,[5],decreases hormones in
same,sperm cells,[5],men and degenerates
CC(C)=CCC/C(C)=C/C=C/C(C)=C/C=C/C(C)=C/C=C/C=C(C)/C=C/C=C(C)/C=C/C=C(\C)CCC=C(C)C [Lycopene],sperm parameters,[1]; in vivo,Improve sperm
C[N+](C)(C)C[C@H](O)CC(=O)[O-] [L-carnitine],sperm concentration,[1]; [7],can significantly improve
same,total sperm counts,[1]; [7],can significantly improve
isoflavones,non-genomic effects on sperm capacitation and acrosome reaction,[6],genomic negative
Vitamin E,semen quality,[1],been shown to increase
same,pregnancy rate in the female partner,[3],been shown to increase
"CC(=O)O[C@H](CC(=O)[O-])C[N+](C)(C)C [L-acetyl carnitine (LAC), L-acetyl carnitine]",sperm concentration,[1]; [7],can significantly improve
same,total sperm counts,[1]; [7],can significantly improve
O[C@H]1[C@H](O)[C@@H](O)[C@H](O)[C@@H](O)[C@H]1O [Myoinositol],progressive motility,[1]; myoinositol supplementation,increase in sperm
same,sperm concentration,[1]; myoinositol supplementation,increase in sperm
same,sperm count,[1]; myoinositol supplementation,increase in sperm
N[C@@H](CCC(=O)N[C@@H](CS)C(=O)NCC(=O)O)C(=O)O [Glutathione],sperm concentration,[1]; glutathione supplementation,Improves sperm
same,sperm morphology,[1]; glutathione supplementation,Improves sperm
same,sperm motility,[1]; glutathione supplementation,Improves sperm
[Zn] [Zinc],semen quality,[1],shown to increase
same,pregnancy rate in the female partner,[3],shown to increase
